Where no end group is shown, it is not given here.
Experiments:
[1] = tested on: delayed-type hypersensitivity (DTH); experiment: Restoration of delayed-type hypersensitivity (DTH) decreased by 5-FU in BDF1 mice; assay type: in vivo; details: i.p.; for DTH response %: % of control
Method: A poor prognosis is often observed in cancer patients with impaired immune response. Impaired immune response can be caused by the cancer itself, by chemotherapeutic agents, or by radiotherapy. Thus, therapeutic agents which restore impaired immune response in cancer patients are expected to play an important role in combination therapy. The restoration activity of the compounds of the invention on impaired cell-mediated immunity was determined by measuring the enhancement of delayed-type hypersensitivity (DTH), which was decreased to a great extent in mice treated with 5-fluorouracil (5-FU).
Female BDF1 mice (20-22 g, 11-12 weeks old) received (i.p. or p.o.) the compound to be tested on consecutive days one day before, concurrently with and 1 and 2 days after the 5-FU treatment. For DTH measurement, 10^8 chicken red blood cells (CRBC) were injected i.p. (or s.c. into the left hind footpad) and challenged s.c. into the right hind footpad at 3 and 7 days after the 5-FU treatment, respectively. Restoration activity was calculated by the following formula from the DTH response observed in the control group, 5-FU treated group treatment and the Test group treated both with 5-FU and the compound of the invention. Restoration activity was calculated by the formula: [formula]

[2] = tested on: Candida albicans ATCC 10231; experiment: Protective activity against Candida albicans infection in 5-FU immunosuppressed mice; assay type: in vivo; details: for Survivors Day 8 / Survivors Day 15: ddY mice; for Survivors at Day 8 after infection: Table 6, i.p., ten times with 5-FU, control 1/7
Method: In a series of examples, the compounds of formula I were tested for protective activity against opportunistic infections in immunosuppressed mice. Female ddY mice (6 weeks old) weighing about 26 g were pretreated daily for ten days with 5-fluorouracil (5-FU) (25 mg/kg/day, i.p.) and with thymosin α1 or with compounds of formula I (i.p.) at varying dosages. The mice were then infected with Candida albicans ATCC 10231 (1×10^5 cells or more) at 24 hour after the last treatment. One control group was administered 5-FU and saline solution and a second control group received neither 5-FU nor compound of formula I prior to infection with Candida albicans. The number of animals surviving eight days after infection with Candida albicans and 15 days after infection with Candida albicans is presented in the table below.
Normal mice (female ddY mice, 6 weeks old) were highly tolerant to infection with Candida albicans ATCC 10231 at relatively low dose (1-2×10^5 cells, iv.). However, when pretreated daily for ten times with 5-FU (25 mg/kg/day, ip.), the mice were susceptible to infection as shown in Table 6. […] Compound A was also shown to be active against infection with Pseudomonas aeruginosa 5E81-1 and Listeria monocytogenes EGD in the immunosuppressed mice (see Tables 7 and 8).

[3] = Table 3, first experiment, 5-FU plus 0.05 μg/kg/day
[4] = Table 3, first experiment, 5-FU plus 0.5 μg/kg/day
[5] = Table 3, first experiment, 5-FU plus 5.0 μg/kg/day
[6] = Table 3, second experiment, 5-FU plus 0.5 μg/kg/day
[7] = Table 3, second experiment, 5-FU plus 5.0 μg/kg/day
[8] = Table 3, second experiment, 5-FU plus 50.0 μg/kg/day
[9] = Example 8, 4.0 μg/kg i.p. daily for ten days with 5-FU
[10] = Example 8, 40.0 μg/kg i.p. daily for ten days with 5-FU

“KSEVVE [Compound B, L-Lysyl-L-seryl-L-glutamyl-L-valyl-L-valyl-L-glutamic acid]” was tested, and the “DTH response av. ± S.E. (0.1 mm)” value ([1]; Table 3, first experiment (control 8.5, 5-FU alone 4.8), 5-FU plus 0.05 μg/kg/day) was 7.2 ± 0.8 0.1 mm, the “DTH response av. ± S.E. (0.1 mm)” value ([1]; Table 3, first experiment (control 8.5, 5-FU alone 4.8), 5-FU plus 0.5 μg/kg/day) was 6.5 ± 0.7 0.1 mm and the “DTH response av. ± S.E. (0.1 mm)” value ([1]; Table 3, first experiment (control 8.5, 5-FU alone 4.8), 5-FU plus 5.0 μg/kg/day) was 8.5 ± 1.0 0.1 mm. The “Restoration Activity(%)” value [1, 3] was 65.0%, the DTH response % [1, 3] was 84.7% and the “Restoration Activity(%)” value [1, 4] was 48.0%. The DTH response % [1, 4] was 77.2%, the “Restoration Activity(%)” value [1, 5] was 100% and the DTH response % [1, 5] was 100%. For the same substance, the “DTH response av. ± S.E. (0.1 mm)” value ([1]; Table 3, second experiment (control 15.1, 5-FU alone 8.1), 5-FU plus 0.5 μg/kg/day) was 8.5 ± 0.9 0.1 mm, the “DTH response av. ± S.E. (0.1 mm)” value ([1]; Table 3, second experiment (control 15.1, 5-FU alone 8.1), 5-FU plus 5.0 μg/kg/day) was 8.3 ± 1.8 0.1 mm and the “DTH response av. ± S.E. (0.1 mm)” value ([1]; Table 3, second experiment (control 15.1, 5-FU alone 8.1), 5-FU plus 50.0 μg/kg/day) was 9.4 ± 0.8 0.1 mm. For the same substance, the “Restoration Activity(%)” value [1, 6] was 6.5%, the DTH response % [1, 6] was 56.4% and the “Restoration Activity(%)” value [1, 7] was 3.1%. The DTH response % [1, 7] was 54.8%, the “Restoration Activity(%)” value [1, 8] was 18.3% and the DTH response % [1, 8] was 61.9%. For the same substance, the “DTH restoration activity (in words)” value ([1]; Tables 2 and 3) was “active”, the “Survivors Day 8” value [2, 9] was 6/7 and the “Survivors Day 15” value [2, 9] was 3/7. The “Survivors Day 8” value [2, 10] was 3/7, the “Survivors Day 15” value [2, 10] was 3/7 and the “Survivors Day 8” value ([2]; Example 9, 4.0 μg/kg i.p. daily for ten days with 5-FU) was 5/7. For the same substance, the “Survivors Day 8” value ([2]; Example 9, 40.0 μg/kg i.p. daily for ten days with 5-FU) was 5/7, the “Survivors at Day 8 after infection” value ([2]; 4 μg/kg/day) was 5/7 and the “Survivors at Day 8 after infection” value ([2]; 40 μg/kg/day) was 5/7.
